Test results reported in patent US5328909A, “Cyclopropenone derivatives” (Mitsubishi Kasei Corporation, priority 1991, dated 1994).
Like-named read-outs stand apart in the source and are kept apart here.

Columns and labels:
[1] = system: cataract animal models; settings: cited from earlier work
[2] = system: rat with enhanced bone destruction by administration of parathyroid hormone; settings: cited from earlier work
[3] = target: T1, m-calpain (Rattus norvegicus, UniProt Q07009); experiment: Thiol protease inhibitory activity against m-calpain purified from rat brain; assay type: biochemical
T1 construct: m-calpain was purified from rat brain; from tissue; host or cells: rat brain
T1 sequence (Q07009 20-700 limits assumed): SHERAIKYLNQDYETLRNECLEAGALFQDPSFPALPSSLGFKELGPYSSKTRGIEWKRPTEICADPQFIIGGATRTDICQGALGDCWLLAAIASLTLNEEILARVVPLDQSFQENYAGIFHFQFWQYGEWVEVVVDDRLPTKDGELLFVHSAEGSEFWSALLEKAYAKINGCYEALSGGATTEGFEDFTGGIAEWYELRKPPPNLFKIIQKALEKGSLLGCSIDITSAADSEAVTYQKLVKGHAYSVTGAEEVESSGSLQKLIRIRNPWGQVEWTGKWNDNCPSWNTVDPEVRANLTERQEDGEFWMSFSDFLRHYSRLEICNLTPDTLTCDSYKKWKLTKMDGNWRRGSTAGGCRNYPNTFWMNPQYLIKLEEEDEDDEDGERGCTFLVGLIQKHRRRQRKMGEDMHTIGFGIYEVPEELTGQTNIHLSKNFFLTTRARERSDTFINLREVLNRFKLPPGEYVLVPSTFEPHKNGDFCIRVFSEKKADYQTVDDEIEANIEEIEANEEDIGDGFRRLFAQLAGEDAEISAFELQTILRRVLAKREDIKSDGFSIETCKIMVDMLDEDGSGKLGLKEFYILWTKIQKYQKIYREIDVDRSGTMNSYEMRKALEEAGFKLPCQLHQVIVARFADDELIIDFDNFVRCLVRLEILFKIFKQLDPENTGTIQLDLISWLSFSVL
T1 sequence (Q64537 1-270 partner): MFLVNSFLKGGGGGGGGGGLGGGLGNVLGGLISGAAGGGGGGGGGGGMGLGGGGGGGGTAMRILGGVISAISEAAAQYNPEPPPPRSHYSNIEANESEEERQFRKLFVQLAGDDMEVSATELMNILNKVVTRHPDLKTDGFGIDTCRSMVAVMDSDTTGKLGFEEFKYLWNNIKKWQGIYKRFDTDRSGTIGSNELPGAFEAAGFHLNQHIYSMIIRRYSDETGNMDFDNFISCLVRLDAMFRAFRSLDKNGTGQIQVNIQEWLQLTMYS
How it was run: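 Papain and bovine cathepsin B assayed by a published method; cathepsin L purified from rat kidney and tested as for cathepsin B. m-Calpain purified from rat brain and assayed by a separate published method.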

[4] = target: T2, cathepsin B (Bos taurus, UniProt P07688); experiment: Thiol protease inhibitory activity against cathepsin B (C-6286, Sigma); assay type: biochemical
T2 construct: purchased Sigma C-6286
Description: (§1) Inhibitory activity against papain (P-3125, Sigma) and cathepsin B (C-6286, Sigma) was assayed according to the method described in a literature [Biochemical Journal, 201, 189 (1982)]. Capthesin L was purified from rat kidney according to the method in a literature [Journal of Biochemistry, 100, 35 (1986)], and the inhibitory activity against it was assayed in the same manner as described in the above literature for cathepsin B. Further, m-calpain was purified from rat brain according to a known method [Journal of Biological Chemistry, 254, p.3210 (1984)] and the inhibitory activity against it was assayed by a method described in a literature [Journal of Biological Chemistry, 259, 12489 (1984)]. The results are showing in Tables 3 and 4. It is evident from Tables 3 and 4 that the compounds in the present invention have a potent inhibitory activity against thiol proteases such as papain, cathepsin B, cathepsin L, m-calpain or the like.

[5] = target: T3, papain (Carica papaya, UniProt P00784); experiment: Thiol protease inhibitory activity against papain (P-3125, Sigma); assay type: biochemical
T3 sequence (P00784 134-345): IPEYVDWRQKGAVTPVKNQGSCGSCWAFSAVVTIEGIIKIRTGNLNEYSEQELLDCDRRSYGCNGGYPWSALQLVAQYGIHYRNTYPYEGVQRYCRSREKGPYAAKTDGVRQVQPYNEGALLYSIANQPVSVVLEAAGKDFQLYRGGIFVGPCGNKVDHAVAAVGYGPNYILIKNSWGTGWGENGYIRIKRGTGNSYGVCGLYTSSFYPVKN
Description: as §1

[6] = target: T4, cathepsin L (Rattus norvegicus, UniProt P07154); experiment: Thiol protease inhibitory activity against cathepsin L purified from rat kidney; assay type: biochemical
T4 construct: Capthesin L was purified from rat kidney; from tissue; host or cells: rat kidney
T4 sequence (P07154 114-288 limits assumed): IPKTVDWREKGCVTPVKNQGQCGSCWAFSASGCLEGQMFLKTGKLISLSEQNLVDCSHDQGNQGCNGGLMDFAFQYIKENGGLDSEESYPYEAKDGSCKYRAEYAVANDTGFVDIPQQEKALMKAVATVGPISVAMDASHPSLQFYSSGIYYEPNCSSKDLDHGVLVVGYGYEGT
T4 sequence (P07154 291-334 limits assumed): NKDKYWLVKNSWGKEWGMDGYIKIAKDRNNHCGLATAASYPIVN
Description: as §1

[7] = system: production of IgE; settings: cited from earlier work
[8] = Acute oral toxicity, rats observed for 7 days; settings: rat, in vivo, suspension in 0.5% CMC-Na aqueous solution, SD female and male rats, 7 days observation
Description: The LD50 value of the compound (I) prepared in Example 1 is: >2,000 mg/kg.

[9] = system: cardiac infarction animal models; settings: cited from earlier work
[10] = system: experimental muscular dystrophy hamster; settings: cited from earlier work
[11] = system: aggregation of platelet caused by thrombin; settings: cited from earlier work
[12] = system: microtubule-associated protein; settings: after the brain ischemia; cited from earlier work
[13] = system: brain trauma models of rat; settings: cited from earlier work
[14] = Table 3, rat brain enzyme, read-out: IC50 (μM) m-calpain
[15] = Table 3, read-out: IC50 (μM) cathepsin B
[16] = Table 3, read-out: IC50 (μM) papain
[17] = Table 3, rat kidney enzyme, read-out: IC50 (μM) cathepsin L

In the case of CC(C)C[C@H](NC(=O)[C@H]1O[C@@H]1C(=O)O)C(=O)NCCCCNC(=N)N [E-64], the effect on cataract [1] is given as “effective on cataract”, the “calcium concentration in blood” value [2] is given as “decrease” and the “hydroxyproline concentration in blood” value [2] is given as “decrease”.
In the case of CCCC[C@H](NC(=O)[C@H](CC(C)C)NC(=O)OCc1ccccc1)C(O)c1c(-c2ccccc2)c1=O (stereo partly drawn) [95 (No. 281), 2-[(2S)-2-((S)-2-benzyloxycarbonylamino-4-methylvalerylamino]-1-hydroxyhexyl]-3-phenylcyclopropenone], the IC50 [3, 14] is reported as 3 µM, the IC50 [4, 15] is reported as 11 µM and the IC50 [5, 16] is reported as 13 µM. The IC50 [6, 17] was 1.27 µM.
For NC(N)=NCCCCNC(=O)[C@H](Cc1ccccc1)NC(=O)[C@H]1O[C@@H]1C(=O)O [Estatin A], the “calcium concentration in blood” value [2] is listed as “decrease”, the “hydroxyproline concentration in blood” value [2] is listed as “decrease” and the “production of IgE” value [7] is listed as “specifically inhibit the production of IgE”. For the same compound, the “production of IgG” value [7] was “without affecting on the production of IgG”.
CCCC[C@H](NC(=O)[C@H](CC(C)C)NC(=O)OCC1CCCCC1)C(O)c1c(-c2ccc([Si](C)(C)C)s2)c1=O (stereo partly drawn) [115 (No. 387), 2-[(2S)-2-((S)-2-cyclohexylmethoxycarbonylamino-4-methylvalerylamino)-1-hydroxy-1-hexyl]-3-(5-trimethylsilyl-2-thienyl)cyclopropenone] gave an IC50 [3] of 11 µM, an IC50 [4] of 1.5 µM and an IC50 [5, 16] of 0.48 µM. It also gave an IC50 [6] of 0.27 µM.
Compound CC(C)C[C@H](NC(=O)OCC1CCCCC1)C(=O)N[C@@H](C(C)C)[C@@H](O)c1c(-c2ccccc2)c1=O [1 (No. 77), 2-[(1S,2S)-2-{(s)-2-cyclohexylmethoxycarbonylamino-4-methylvalerylamino}-1-hydroxy-3-methylbuthyl]-3-phenylcyclopropenone] has an IC50 [3, 14] of 1.6 µM, an LD50 at 168 h [8] greater than 2000 mg/kg and an IC50 [4, 15] of 0.71 µM. For the same compound, the IC50 [5, 16] was 0.054 µM and the IC50 [6, 17] was 0.00086 µM.
CCCC[C@H](NC(=O)[C@H](CC(C)C)NC(=O)OCC1CCCCC1)C(O)c1c(-c2ccccc2)c1=O (stereo partly drawn) [94 (No. 280), 2-[(2S)-2-((S)-2-cyclohexylmethoxycarbonylamino-4-methylvalerylamino)-1-hydroxyhexyl]-3-phenylcyclopropenone] gave an IC50 [3, 14] of 2.7 µM, an IC50 [4, 15] of 1 µM and an IC50 [5, 16] of 0.074 µM. The IC50 [6, 17] was 0.062 µM.
For CCOC(=O)[C@@H]1O[C@H]1C(=O)NC(CC(C)C)C(=O)N1CCN(Cc2ccc(OC)c(OC)c2OC)CC1.CCOC(=O)[C@@H]1O[C@H]1C(=O)NC(CC(C)C)C(=O)N1CCN(Cc2ccc(OC)c(OC)c2OC)CC1.O=S(=O)(O)O (stereo partly shown) [NCO-700], the “effect on cardiac infarction” value [9] is given as “effective on cardiac infarction”.
For CCOC(=O)[C@H]1O[C@@H]1C(=O)N[C@@H](CC(C)C)C(=O)NCCC(C)C [E-64-d], the life-prolonging effect [10] is listed as “life-prolonging effect” and the aggregation of platelet [11] is listed as “suppressed aggregation of platelet”.
In the case of CC(C)CCNC(=O)[C@H](CC(C)C)NC(=O)[C@H]1O[C@@H]1C(=O)O [E-64-C], the “degradation of microtubule-associated protein” value [12] is listed as “inhibits the degradation of microtubule-associated protein”.
Work on CCCC[C@H](NC(=O)[C@H](CC(C)C)NC(=O)OCc1ccccn1)C(O)c1c(-c2ccccc2)c1=O (stereo partly shown) [96 (No. 282)] yielded an IC50 [3, 14] of 5.7 µM, an IC50 [4, 15] of 28 µM and an IC50 [5] of 7 µM. The IC50 [6, 17] was 4.6 µM.
In the case of CC(=O)N[C@@H](CC(C)C)C(=O)N[C@@H](CC(C)C)C(=O)N[C@H](C=O)CCCNC(=N)N [leupetin], the axon protection [13] is given as “can protect axon”.
For CCCC[C@H](NC(=O)[C@H](CC(C)C)NC(=O)OCc1ccccc1)C(O)c1cc1=O (stereo partly drawn) [7 (No. 16), 2-[(2S)-2-((S)-2-benzyloxycarbonylamino-4-methylvalerylamino)-1-hydroxyhexyl]cyclopropenone], the IC50 [3, 14] was 2.4 µM, the IC50 [4, 15] was 0.32 µM and the IC50 [5, 16] was 0.14 µM. It also gave an IC50 [6, 17] of 0.24 µM.
Compound CC(C)C[C@H](NC(=O)OCc1ccccc1)C(=O)N[C@@H](C(C)C)C(O)c1c(-c2ccccc2)c1=O (stereo partly drawn) [26 (No. 83), 2-[(2S)-2-((S)-2-benzyloxycarbonylamino-4-methylvalerylamino)-1-hydroxy-3-methylbutyl]-3-phenylcyclopropenone] has an IC50 [3, 14] of 1.6 µM, an IC50 [4, 15] of 43 µM and an IC50 [5, 16] of 4.2 µM. For the same compound, the IC50 [6, 17] was 5.8 µM.
In the case of CC(C)C[C@H](NC(=O)OCC1CCCCC1)C(=O)N[C@@H](C(C)C)[C@H](O)c1c(-c2ccccc2)c1=O [2 (No. 77), 2-[(1R, 2S)-2-{(S)-2-cyclohexylmethoxycarbonylamino-4-methylvalerylamino}-1-hydroxy-3-methylbutyl]-3-phenylcyclopropenone], the IC50 [3, 14] is reported as 3.3 µM, the IC50 [4, 15] is reported as 0.044 µM and the IC50 [5, 16] is reported as 22 µM. The IC50 [6, 17] was 0.0012 µM.
With CCCC[C@H](NC(=O)[C@H](CC(C)C)NC(=O)OCC1CCCCC1)C(O)c1cc1=O (stereo partly drawn) [6 (No. 15), 2-[(2S)-2-((S)-2-cyclohexylmethoxycarbonylamino-4-methylvalerylamino)-1-hydroxyhexyl]cyclopropenone] the IC50 [3, 14] was 0.81 µM, the IC50 [4, 15] was 0.16 µM and the IC50 [5, 16] was 0.076 µM. It also gave an IC50 [6, 17] of 0.54 µM.
Work on CCCC[C@H](NC(=O)[C@H](CC(C)C)NC(=O)OCC1CCCCC1)C(O)c1c(-c2ccc([Si](C)(C)C)o2)c1=O (stereo partly drawn) [114 (No. 376), 2-[(2S)-2-((S)-2-cyclohexylmethoxycarbonylamino-4-methylvalerylamino)-1-hydroxy-1-hexyl]-3-(5-trimethylsilyl-2-furil)cyclopropenone] yielded an IC50 [3] of 5.6 µM, an IC50 [4] of 2.5 µM and an IC50 [5, 16] of 0.68 µM. It also gave an IC50 [6] of 0.58 µM.
CC(C)C[C@H](NC(=O)OCc1ccccc1)C(=O)N[C@@H](C(C)C)[C@@H](O)c1c(-c2ccccc2)c1=O [25 (No. 83), 2-[(1S, 2S)-2-((S)-2-benzyloxycarbonylamino-4-methylvalerylamino)-1-hydroxy-3-methylbutyl]-3-phenylcyclopropenone] gave an IC50 [3, 14] of 2.1 µM, an IC50 [4, 15] of 32 µM and an IC50 [5, 16] of 13 µM. For the same compound, the IC50 [6, 17] was 5.7 µM.
For CC(C)C[C@H](NC(=O)OCc1ccccc1)C(=O)N[C@@H](CC(C)C)C(O)c1cc1=O (stereo partly drawn) [5 (No. 10), 2-[(2S)-2-((S)-2-benzyloxycarbonylamino-4-methylvalerylamino)-1-hydroxy-4-methylpentyl]cyclopropenone], the IC50 [3, 14] was 2.3 µM, the IC50 [4, 15] was 3 µM and the IC50 [5, 16] was greater than 100 µM. The IC50 [6, 17] was 0.75 µM.
